Experiments:
[1] = tested on: Microcystis; conditions: cited from earlier work
[2] = tested on: Planktothrix agardhii; conditions: equivalent of 2.5 mg/L in 1140 L, 9500 cm^2
[3] = tested on: Microcystis; conditions: in vivo
[4] = tested on: Planktothrix agardhii; conditions: cited from earlier work
[5] = Buoyancy by weighing-pan set-up (FIG. 2); format: physicochemical
Description: FIG. 2 schematically illustrates an experimental set-up for testing the buoyancy of the herein disclosed compositions, including (1) a balance; (2) a measuring pod with an aperture; (3) an underneath hook to measure weight; (4) a beaker filled with water simulating an aquatic system; (5) a weighing-pan.
In order to test the buoyancy of the herein disclosed compositions, an experimental set-up, schematically illustrated in FIG. 2, was applied. In this set-up, a laboratory balance 1 (0-2,000±0.1 g) was positioned to measure the weight of a composition placed on a weighing-pan 5 immersed in a beaker filled with water 4. If the composition is non-buoyant (AI without the coating material) an increase in weight is anticipated (‘negative control’). Oppositely, if the composition is buoyant, the weight is expected to remain essentially unchanged.

[6] = Buoyancy of sodium percarbonate in 15 ml vials; format: physicochemical; conditions: 5 grams, FIG. 5
[7] = Buoyancy and resurfacing of coated copper sulfate compositions in water (vials, glasses; visual); format: physicochemical; conditions: granular copper sulfate with different % (w/w) coating placed in water, FIG. 1
[8] = Sedimentation analysis in 10-liter cylinders with sediment; format: physicochemical; conditions: 10-liter cylinder, after one hour, FIG. 6
Procedure: Two 10-liter cylinders were filled with water and supplemented with sediment. To one cylinder, granules of copper sulfate pentahydrate (mimicking standard treatment) were added, while a buoyant copper-based composition was added to the other cylinder.

[9] = tested on: algal bloom (cyanobacterial biomass); experiment: Seasonal treatment of algal bloom at ~1.04 km^2 irrigation pond; format: in vivo
Procedure: As detailed in FIG. 9, biomass and total copper concentrations were measured during the first two days to assess efficacy and minimal required AI concentrations. Cyanobacterial biomass was measured using a YSI Exo-3 probe that was supplied with a GPS. […] Water samples for total copper concentrations, as well as estimation of particle time travel on the water, as well as final coverage, was done with a kayak and by using a laser distance/range measurer. Total copper concentrations were measured with a YSI 9300 photometer in accordance with manufacturer instructions.

## OO [H2O2, hydrogen peroxide]
[1]; 150 L mesocosm
  H2O2 dose at which abundance of Microcystis decreased: ≥ 4 mg/L
[1]; H2O2 dose 2 mg/L
  cell density of Microcystis: did not decrease
[1]; H2O2 dose of 2 mg/L
  time to reappearance of high Microcystis cell density: 11 days
[2]
  lowest effective H2O2 amount per surface area: 2.85 gr/m^2
[3]
  H2O2 amount per surface area at which Microcystis decreased: ≥ 2.44 gr/m^2
[4]; Plexiglas containers, 2*10^6 cells/mL
  lowest H2O2 concentration that sufficed to significantly reduce the P. agardhii population: 2.5 mg/L
[4]; at 2.5 mg/L H2O2
  photosynthetic performance and cell counts of zooplankton population: severely reduced
[4]; natural water body
  time until cyanobacteria population started to recover: 6-7 weeks

## O=c1nc([O-])n(Cl)c(=O)n1Cl.[Na+] [un-encapsulated NADCC, sodium dichloroisocyanurate]
[5]; 9.5 grams placed on the weighing-pan in water
  weight increase on weighing-pan: ~5.3 g

## O=C([O-])[O-].O=C([O-])[O-].OO.OO.OO.[Na+].[Na+].[Na+].[Na+] [uncoated sodium percarbonate, sodium percarbonate]
[6]
  buoyancy in water: sank immediately

## copper sulfate pentahydrate
[7]; listed as non-coated active ingredient (0.0% (w/w))
  buoyancy in water (floating, sinking, resurfacing): sank immediately to the bottom
[7]; listed as raw copper salt (“0% coating”)
  buoyancy in water (floating, sinking, resurfacing): sunk immediately after dispersion
[5]; samples of 100 grams, set-up of FIG. 2
  weight increase on weighing-pan: 50%±3%
[8]
  behaviour in water column with sediment: immediately sank into the sediment
[9]; 2015, 6 aerial applications, total of 8,000 kg
  average chlorophyll-a concentration: 100-200 μg chlorophyll-a/L
[9]; 2016, 7 aerial applications of 2000 kg
  average cyanobacterial concentration (chlorophyll-a): 60 to 80 µg/L

Reference: patent US11944092B2, “Compositions for controlling phytoplankton contamination” (BLUEGREEN WATER TECHNOLOGIES LTD., priority 2019, dated 2024)
